What is called Ki is the dissociation constant of the complex between target and ligand, obtained from inhibition or displacement. For orientation: IC50 means the concentration that inhibits the measured activity by half. The term Kd denotes the concentration at which binding is half-saturated.

Molecules are shown by their SMILES.

Consider 2 compounds from publication PMC7946438 (The Journal of Biological Chemistry, 2021).

Series [1] has as its target T1, DYRK2 (Homo sapiens, UniProt Q92630).
T1 sequence (Q92630 146-540): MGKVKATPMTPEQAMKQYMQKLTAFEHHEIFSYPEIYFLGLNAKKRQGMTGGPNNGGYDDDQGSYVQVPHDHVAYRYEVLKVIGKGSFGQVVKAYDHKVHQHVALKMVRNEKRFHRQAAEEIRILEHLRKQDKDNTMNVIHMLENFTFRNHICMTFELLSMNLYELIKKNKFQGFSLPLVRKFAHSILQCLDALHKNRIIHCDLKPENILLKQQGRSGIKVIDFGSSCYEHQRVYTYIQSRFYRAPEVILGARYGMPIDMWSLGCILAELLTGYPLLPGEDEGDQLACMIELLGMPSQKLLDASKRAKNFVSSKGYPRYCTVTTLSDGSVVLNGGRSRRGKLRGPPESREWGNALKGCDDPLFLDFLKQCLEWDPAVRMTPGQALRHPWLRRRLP
As to the kind of experiment: Coupled kinase assay, DYRK2. The format is biochemical.

The subject of the next series is MDA-MB-231. As to the kind of experiment: Cytotoxicity by MTT assay, MDA-MB-231. The format is cell-based. The settings on record: for IC50: Homo sapiens, MDA-MB-231, read-out: IC50 dose; for IC10 dose: MDA-MB-231, value used as dose in wound-healing assay. For orientation: Tetrazolium assays rely on reduction of a dye to a coloured formazan, in cell work by metabolically active cells.

Series [2] has as its system MDA-MB-231 cells. As to the kind of experiment: Stability of the compound in cells by live-cell fluorescence imaging. The format is in vitro ADME. The settings on record: MDA-MB-231, 10 μM.
Series [3] has as its target T2, Src (Homo sapiens, UniProt P12931). As to the kind of experiment: biochemical.
Target sequence in this assay (P12931 254-535 limits assumed): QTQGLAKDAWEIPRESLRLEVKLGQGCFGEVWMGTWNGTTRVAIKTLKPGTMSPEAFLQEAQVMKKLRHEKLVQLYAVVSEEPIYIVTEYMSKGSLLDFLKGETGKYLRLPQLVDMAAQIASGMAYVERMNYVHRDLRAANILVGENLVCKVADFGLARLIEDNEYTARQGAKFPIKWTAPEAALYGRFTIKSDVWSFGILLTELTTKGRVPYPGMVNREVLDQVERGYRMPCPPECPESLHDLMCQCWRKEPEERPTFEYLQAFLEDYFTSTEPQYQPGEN
Series [4] has as its target T3, Hck (Homo sapiens, UniProt P08631). As to the kind of experiment: biochemical. The format is biochemical.
Target sequence in this assay (P08631 262-515 limits assumed): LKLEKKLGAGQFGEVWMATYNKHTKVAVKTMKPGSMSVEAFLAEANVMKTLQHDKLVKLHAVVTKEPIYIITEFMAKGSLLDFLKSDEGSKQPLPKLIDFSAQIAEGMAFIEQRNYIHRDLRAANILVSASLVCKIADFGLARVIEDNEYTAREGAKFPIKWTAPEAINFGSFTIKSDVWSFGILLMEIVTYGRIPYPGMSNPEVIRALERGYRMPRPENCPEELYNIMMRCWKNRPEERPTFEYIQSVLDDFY
The target of the next series is pY-Hck (Homo sapiens, UniProt P08631). As to the kind of experiment: Coupled kinase assay, phosphorylated Hck. The format is biochemical. The settings on record: 5 μM of 4.
A further series concerns the target pY-Src (Homo sapiens, UniProt P12931). Kind of series: Coupled kinase assay, phosphorylated Src. The format is biochemical. The settings on record: 5 μM of 4.
Series [5] deals with T4, Abl Y253F (Homo sapiens, UniProt P00519, Y253F).
T4 sequence (P00519 229-512 Y253F limits assumed): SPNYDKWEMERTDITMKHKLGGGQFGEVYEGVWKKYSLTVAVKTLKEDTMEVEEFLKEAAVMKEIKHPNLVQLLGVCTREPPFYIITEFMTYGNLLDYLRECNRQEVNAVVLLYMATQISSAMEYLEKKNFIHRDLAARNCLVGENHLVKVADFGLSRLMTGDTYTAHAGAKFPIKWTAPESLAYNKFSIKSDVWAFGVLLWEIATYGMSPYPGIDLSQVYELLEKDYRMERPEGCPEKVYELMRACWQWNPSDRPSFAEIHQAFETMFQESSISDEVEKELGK
Kind of series: Kinase activity of Abl Y253F mutant. The format is biochemical. The settings on record: 10 μM.

Series [6] addresses T3, Hck. As to the kind of experiment: biochemical. The format is binding.
Target sequence in this assay (P08631 247-526 limits assumed): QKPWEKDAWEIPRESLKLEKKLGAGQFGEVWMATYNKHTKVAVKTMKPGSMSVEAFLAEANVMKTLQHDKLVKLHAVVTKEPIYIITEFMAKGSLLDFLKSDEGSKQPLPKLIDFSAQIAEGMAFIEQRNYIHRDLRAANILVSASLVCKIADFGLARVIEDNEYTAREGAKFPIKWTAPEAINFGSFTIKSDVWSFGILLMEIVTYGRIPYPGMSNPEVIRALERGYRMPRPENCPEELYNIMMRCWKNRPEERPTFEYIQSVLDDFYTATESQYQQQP
The target of series [7] is T4, Abl Y253F. As to the kind of experiment: Stop-flow tryptophan fluorescence binding kinetics, Abl Y253F.
For series [8], the target named is T1, DYRK2. As to the kind of experiment: Stop-flow tryptophan fluorescence binding kinetics, DYRK2. The settings on record: tryptophan fluorescence transient.
The target in series [9] is T3, Hck. The class given is biochemical.
Target sequence in this assay (P08631 247-526 limits assumed): as above
For series [10], the target named is T2, Src. The class given is biochemical.
Target sequence in this assay (P12931 254-535 limits assumed): as the sequence (P12931 254-535 limits assumed) above
A further series relates to HEK 293T. As to the kind of experiment: Cytotoxicity by MTT assay, HEK 293T. The class given is cell-based. The settings on record: Homo sapiens, 48 h, read-out: IC50 value HEK 293T.
A short description of a further series: Solution stability. The format is physicochemical.
Series [11] is described as follows: Aggregation by dynamic light scattering. Conditions: 15 μM in aqueous assay buffer. The class given is physicochemical.
Another series addresses Src kinase domain (Homo sapiens, UniProt P12931).
Series [12] concerns MDA-MB-231 cells. As to the kind of experiment: Plasma membrane integrity, FM4-64-FX live-cell imaging. The format is cell-based. Conditions: 15 μM, 6 h.
Series [13] deals with MDA-MB-231 cells. Kind of series: Wound-healing assay. The class given is cell-based. Conditions: IC10 and IC50 dose.
The next series concerns ERK1/2. As to the kind of experiment: ERK1/2 nuclear translocation, immunofluorescence. The format is cell-based. Conditions: MDA-MB-231, 5 μM of 4.
Series [14] has as its system Bcl-2, Cytochrome C, caspase 3, Bid. Kind of series: Western blot analysis of apoptosis markers. The class given is cell-based. Conditions: MDA-MB-231, 10 and 20 μM, 12 h. Background: A western blot detects proteins with antibodies after separation by electrophoresis.
For another series, the system named is RAW 264.7 cells. Kind of series: Intracellular calcium detection. The format is cell-based, murine. The settings on record: RAW 264.7, 5 μM of 4. On the technique in general: A change in cytosolic calcium serves as a functional read-out for many receptors and channels.
Another series has as its system STAT3. As to the kind of experiment: STAT3 nuclear translocation, immunofluorescence. The format is cell-based, murine. Conditions: RAW 264.7, 5 μM of 4.
A further series has as its system Src, ERK1/2, and STAT3. Kind of series: Phosphorylation of Src, ERK1/2 and STAT3 in macrophages, immunoprecipitation. The settings on record: RAW 264.7, LPS activated. The format is cell-based, murine.
For series [15], the target named is T2, Src. The settings on record: MDA-MB-231.
Target sequence in this assay (P12931 whole entry): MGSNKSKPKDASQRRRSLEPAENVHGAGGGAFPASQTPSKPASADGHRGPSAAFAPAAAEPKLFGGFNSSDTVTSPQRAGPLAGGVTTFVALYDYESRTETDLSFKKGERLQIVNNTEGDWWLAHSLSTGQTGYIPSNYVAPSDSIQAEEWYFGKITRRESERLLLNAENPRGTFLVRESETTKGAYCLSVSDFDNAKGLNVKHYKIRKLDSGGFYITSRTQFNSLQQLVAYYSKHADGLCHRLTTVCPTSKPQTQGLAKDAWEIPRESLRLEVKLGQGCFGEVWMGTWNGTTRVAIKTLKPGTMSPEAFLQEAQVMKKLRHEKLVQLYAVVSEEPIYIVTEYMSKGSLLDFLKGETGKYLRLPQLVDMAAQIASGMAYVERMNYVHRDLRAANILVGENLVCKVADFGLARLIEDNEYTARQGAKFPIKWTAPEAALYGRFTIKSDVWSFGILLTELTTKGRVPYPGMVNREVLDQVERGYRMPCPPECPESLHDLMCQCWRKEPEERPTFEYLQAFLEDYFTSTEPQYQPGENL
Another series relates to pUC19 plasmid DNA. Kind of series: DNA cross-linking assay. Conditions: 0.1–20 μM, 37 °C, 2 h.

Src kinase domain, sequence (P12931 254-535 limits assumed): as the sequence (P12931 254-535 limits assumed) above
pY-Src, sequence (P12931 254-535): as the sequence (P12931 254-535 limits assumed) above
pY-Hck, sequence (P08631 166-445): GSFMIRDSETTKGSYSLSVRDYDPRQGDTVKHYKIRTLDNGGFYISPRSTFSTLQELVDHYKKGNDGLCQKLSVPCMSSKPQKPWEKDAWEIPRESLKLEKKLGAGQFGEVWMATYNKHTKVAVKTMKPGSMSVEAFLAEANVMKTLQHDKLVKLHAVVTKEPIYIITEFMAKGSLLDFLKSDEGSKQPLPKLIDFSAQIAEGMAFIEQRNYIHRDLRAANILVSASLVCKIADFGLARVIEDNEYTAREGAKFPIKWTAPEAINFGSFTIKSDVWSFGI

`COc1cc(/C=C/C(=O)CC(=O)/C=C/c2ccc(O)c(OC)c2)ccc1O` [Compound 1, Curcumin, reference compound]: affinity on DYRK2 [1] was put at a Ki of 6 nM. Further, in the series with MDA-MB-231, the IC50 came out at 13000 nM and the IC10 dose was 600 nM. Further, in the series on MDA-MB-231 cells [2] (fluorescence), the “Time to degradation inside the cell” value is ≤ 1 h.

As to `COc1cc(/C=C/C(=O)C(=Cc2ccc(N(CCCl)CCCl)cc2)C(=O)/C=C/c2ccc(O)c(OC)c2)ccc1O` [Compound 4, (1E,6E)-4-(4-(bis(2-chloroethyl)amino)benzylidene)-1,7-bis(4-hydroxy-3-methoxyphenyl)hepta-1,6-diene-3,5-dione], the Ki at Src [3] worked out at 460 ± 110 nM; at Hck [4], 70 ± 11 nM. For the same compound, the Mode of inhibition entry at Hck [4] (Km for ATP changes, Vmax unchanged) is reported as “competitive inhibitor for the ATP-binding site”. Further, the “Inhibition of phosphorylated Hck (pY-Hck)” value on pY-Hck was “does not inhibit”. For the same compound, the “Inhibition of phosphorylated Src (pY-Src)” value at pY-Src is reported as “does not inhibit”. Moreover, the “Inhibition of Abl Y253F kinase activity” value on Abl Y253F [5] was “better inhibition compared with imatinib”. For the same compound, the results for the Kd at Hck [6] and on Abl Y253F [7] were 50 ± 10 nM and 1300 ± 300 nM, respectively. Also, the “Interaction with DYRK2” value at DYRK2 [8] was “did not interact”. Besides, the “Reduction of the rate of autophosphorylation” value is reported as 500 fold on Hck [9] and 2.5 fold at Src [10]. The IC50 in the series on MDA-MB-231 worked out at 1300 nM; in the series with HEK 293T it was 24900 ± 1000 nM. This compound showed an IC10 dose in the series with MDA-MB-231 of 100 nM. In addition, in the series on MDA-MB-231 cells [2] (observed for 14 h), the “Time for which fluorescence was observed inside the cell” value is 14 h. Also, the “Time stable in solution by 1H NMR” value in the series “Solution stability” (8:2 v/v of 1x PBS and DMSO-d6, 24 h observed period) was “at least 24 h”. For the same compound, the “Stability in the kinase assay buffer” value in the series “Solution stability” (kinase assay buffer pH 8.0, 5% DMSO, 1 h) is reported as “most stable”. In addition, the “Aggregation in solution (oligomeric state, DLS)” value in series [11] is recorded as “did not aggregate”. For the same compound, the “Covalent modification of cysteine residues of Src kinase” value at Src kinase domain is “not covalently modifying”. Further, the “Effect on plasma membrane integrity” value in the series on MDA-MB-231 cells [12] is reported as “not affecting the membrane integrity”. In the series on MDA-MB-231 cells [13], the “Effect on wound-healing rates” value is on record as “significantly impaired the wound-healing rates”. For the same compound, in the series on ERK1/2, the “Cytosolic fraction of ERK1/2 after TNF-α activation” value is on record as “significantly increased”. Besides, the “BH3 interacting domain death agonist expression level” value in series [14] is given as “does not affect”. In series [14], the “Mitochondria-mediated apoptotic pathway (Bcl-2, cytochrome C, Caspase3)” value is recorded as “activates the mitochondria-mediated apoptotic pathway”. Further, the “Ca^2+ release after LPS activation” value in the series on RAW 264.7 cells is “significant reduction”. Further, the “Cytosolic fraction of STAT3 after LPS activation” value in the series with STAT3 was “increased cytosolic fraction of STAT3”. In the series with Src, ERK1/2, and STAT3, the “Phosphorylation of Src, ERK1/2, and STAT3” value is “concentration-dependent reduced phosphorylation”. Further, the “Autophosphorylation of Src in the cell” value at Src [15] is on record as “inhibits the autophosphorylation of Src”. Moreover, the DNA cross-linking result in the series with pUC19 plasmid DNA is reported as “do not cross-link DNA”.
